Assay results: patent US20060074131A1, “Novel crystalline polymorph of venlafaxine hydrochloride and methods for the preparation thereof” (Wyeth, priority 2001, published 2006)
Structures can show the parent of a compound that is named as a salt.

Columns and labels:
[1] = Intrinsic dissolution rate (USP 23 section 711, apparatus 2, compressed pellets in water); format: physicochemical; details: 900 mL water, 37° C., 100 rpm, pellet with exposed surface area 0.5 cm^2, UV 220 nm
Protocol: The intrinsic dissolution rates of Form II and the crystalline polymorph of the present invention were determined as follows. Pellets of venlafaxine hydrochloride were prepared by compressing 100 mg of each material in a die (Wood's apparatus) at 1000 psi for 1 minute with a Carver press. […] The dissolution rate in 900 mL of water was determined by USP 23 (1995), section 711, page 1791 (Dissolution, apparatus 2), with a rotation speed of 100 rpm at 37° C. The dissolution media was circulated through a 1.0 cm path microflow cell at a flow rate of 10 mL/minute. Ultraviolet absorbance was recorded at 220 nm.

[2] = Thermogravimetric analysis (TGA); format: physicochemical; details: heated from 28 to 238° C. at 10° C./minute under nitrogen purge
Protocol: A sample of the venlafaxine hydrochloride crystalline polymorph of the present invention was heated from 28 to 238° C. at a scan rate of 10° C./minute in a Pyris I TGA, available from Perkin-Elmer of Shelton, Conn., under a nitrogen purge.

[3] = test system: monoamine oxidase; details: cited from earlier work
[4] = test system: adrenergic receptors; details: in vitro; cited from earlier work
[5] = test system: muscaranic receptors; details: in vitro; cited from earlier work
[6] = test system: histaminergic receptors; details: in vitro; cited from earlier work

COc1ccc(C(CN(C)C)C2(O)CCCCC2)cc1 (stereo not drawn) [Form II, venlafaxine hydrochloride]
intrinsic dissolution rate [1]: 24.7 mg/cm^2-minute

COc1ccc(C(CN(C)C)C2(O)CCCCC2)cc1 (stereo not drawn) [venlafaxine hydrochloride]
weight loss on heating (TGA) [2]: lost little weight until it was heated near the melting point

COc1ccc(C(CN(C)C)C2(O)CCCCC2)cc1 (stereo not drawn) [venlafaxine, 1-[2-(dimethylamino)-1-(4-methoxyphenyl)ethyl]cyclohexanol]
inhibitory activity on monoamine oxidase [3]: no inhibitory activity
affinity for adrenergic receptors [4]: virtually no affinity
affinity for muscaranic receptors [5]: virtually no affinity
affinity for histaminergic receptors [6]: virtually no affinity
